Data taken from patent US20030147950A1, “Modified release tamsulosin tablets” (priority 2001, published 2003).

Test: Solubility of tamsulosin HCl in aqueous media
Assay type: physicochemical
Conditions: up to 10 mg
From the text: SGF represents a standard stomach condition. SIF represents a standard intestinal condition. FeSSIF is tailored to better represent the fed state while FaSSIF is tailored to better represent the fasting state. Note that not only are the pH different, but equally important, the osmolarity are also different.

volume of any aqueous media needed to dissolve until 10 mg: not more than 500 ml
SMILES: CCOc1ccccc1OCCNC(C)Cc1ccc(OC)c(S(N)(=O)=O)c1 (stereo not shown) [tamsulosin HCI, 5-[2-[[2-(2-ethoxyphenoxy)ethyl]amino]propyl]-2-methoxy-benzenesulfonamide]
